Experimental data from patent publication US8846686B2, “Compounds useful as inhibitors of ATR kinase” (Vertex Pharmaceuticals Incorporated, priority 2011, dated 2014).

What was measured:
Colo205 model = experiment: COLO205 model with irinotecan as the DNA damaging agent; assay type: in vivo, mouse
Source text: (§1) T/C=tumour size of treatment group compared with control group

[1] = test system: HCT116 colorectal cancer cells; experiment: Single agent HCT116 activity, 96 h cell viability (MTS) assay; assay type: cell-based; settings: Homo sapiens, HCT-116; 96 h MTS cell viability; read-out: Single agent HT116 IC50
Protocol: Compounds can be screened for single agent activity against HCT116 colorectal cancer cells using a 96 h cell viability (MTS) assay. HCT116 are plated at 470 cells per well in 96-well polystyrene plates (Costar 3596) in 150 μl of McCoy's 5A media (Sigma M8403) supplemented with 10% foetal bovine serum (JRH Biosciences 12003), Penicillin/Streptomycin solution diluted 1:100 (Sigma P7539), and 2 mM L-glumtamine (Sigma G7513), and allowed to adhere overnight at 37° C. in 5% CO2. Compounds are then added to the cell media in 2-fold serial dilutions from a top final concentration of 10 μM as a full matrix of concentrations in a final cell volume of 200 μl, and the cells are then incubated at 37° C. in 5% CO2. After 96 h, 40 μl of MTS reagent (Promega G358a) is added to each well and the cells are incubated for 1 h at 37° C. in 5% CO2. Finally, absorbance is measured at 490 nm using a SpectraMax Plus 384 reader (Molecular Devices) and IC50 values can be calculated.

primary NSCLC model = experiment: Primary non-small cell lung cancer (NSCLC) model with cisplatin as the DNA damaging agent; assay type: in vivo, mouse
Source text: as §1

full-length ATR = molecular target: T1, full-length ATR (Homo sapiens, UniProt Q13535); experiment: ATR inhibition assay (radioactive-phosphate incorporation); assay type: biochemical; settings: Ki(app), 5 nM full-length ATR, 10 μM ATP
T1 construct: Assays are carried out at 25° C. in the presence of 5 nM full-length ATR
T1 sequence (Q13535 whole entry): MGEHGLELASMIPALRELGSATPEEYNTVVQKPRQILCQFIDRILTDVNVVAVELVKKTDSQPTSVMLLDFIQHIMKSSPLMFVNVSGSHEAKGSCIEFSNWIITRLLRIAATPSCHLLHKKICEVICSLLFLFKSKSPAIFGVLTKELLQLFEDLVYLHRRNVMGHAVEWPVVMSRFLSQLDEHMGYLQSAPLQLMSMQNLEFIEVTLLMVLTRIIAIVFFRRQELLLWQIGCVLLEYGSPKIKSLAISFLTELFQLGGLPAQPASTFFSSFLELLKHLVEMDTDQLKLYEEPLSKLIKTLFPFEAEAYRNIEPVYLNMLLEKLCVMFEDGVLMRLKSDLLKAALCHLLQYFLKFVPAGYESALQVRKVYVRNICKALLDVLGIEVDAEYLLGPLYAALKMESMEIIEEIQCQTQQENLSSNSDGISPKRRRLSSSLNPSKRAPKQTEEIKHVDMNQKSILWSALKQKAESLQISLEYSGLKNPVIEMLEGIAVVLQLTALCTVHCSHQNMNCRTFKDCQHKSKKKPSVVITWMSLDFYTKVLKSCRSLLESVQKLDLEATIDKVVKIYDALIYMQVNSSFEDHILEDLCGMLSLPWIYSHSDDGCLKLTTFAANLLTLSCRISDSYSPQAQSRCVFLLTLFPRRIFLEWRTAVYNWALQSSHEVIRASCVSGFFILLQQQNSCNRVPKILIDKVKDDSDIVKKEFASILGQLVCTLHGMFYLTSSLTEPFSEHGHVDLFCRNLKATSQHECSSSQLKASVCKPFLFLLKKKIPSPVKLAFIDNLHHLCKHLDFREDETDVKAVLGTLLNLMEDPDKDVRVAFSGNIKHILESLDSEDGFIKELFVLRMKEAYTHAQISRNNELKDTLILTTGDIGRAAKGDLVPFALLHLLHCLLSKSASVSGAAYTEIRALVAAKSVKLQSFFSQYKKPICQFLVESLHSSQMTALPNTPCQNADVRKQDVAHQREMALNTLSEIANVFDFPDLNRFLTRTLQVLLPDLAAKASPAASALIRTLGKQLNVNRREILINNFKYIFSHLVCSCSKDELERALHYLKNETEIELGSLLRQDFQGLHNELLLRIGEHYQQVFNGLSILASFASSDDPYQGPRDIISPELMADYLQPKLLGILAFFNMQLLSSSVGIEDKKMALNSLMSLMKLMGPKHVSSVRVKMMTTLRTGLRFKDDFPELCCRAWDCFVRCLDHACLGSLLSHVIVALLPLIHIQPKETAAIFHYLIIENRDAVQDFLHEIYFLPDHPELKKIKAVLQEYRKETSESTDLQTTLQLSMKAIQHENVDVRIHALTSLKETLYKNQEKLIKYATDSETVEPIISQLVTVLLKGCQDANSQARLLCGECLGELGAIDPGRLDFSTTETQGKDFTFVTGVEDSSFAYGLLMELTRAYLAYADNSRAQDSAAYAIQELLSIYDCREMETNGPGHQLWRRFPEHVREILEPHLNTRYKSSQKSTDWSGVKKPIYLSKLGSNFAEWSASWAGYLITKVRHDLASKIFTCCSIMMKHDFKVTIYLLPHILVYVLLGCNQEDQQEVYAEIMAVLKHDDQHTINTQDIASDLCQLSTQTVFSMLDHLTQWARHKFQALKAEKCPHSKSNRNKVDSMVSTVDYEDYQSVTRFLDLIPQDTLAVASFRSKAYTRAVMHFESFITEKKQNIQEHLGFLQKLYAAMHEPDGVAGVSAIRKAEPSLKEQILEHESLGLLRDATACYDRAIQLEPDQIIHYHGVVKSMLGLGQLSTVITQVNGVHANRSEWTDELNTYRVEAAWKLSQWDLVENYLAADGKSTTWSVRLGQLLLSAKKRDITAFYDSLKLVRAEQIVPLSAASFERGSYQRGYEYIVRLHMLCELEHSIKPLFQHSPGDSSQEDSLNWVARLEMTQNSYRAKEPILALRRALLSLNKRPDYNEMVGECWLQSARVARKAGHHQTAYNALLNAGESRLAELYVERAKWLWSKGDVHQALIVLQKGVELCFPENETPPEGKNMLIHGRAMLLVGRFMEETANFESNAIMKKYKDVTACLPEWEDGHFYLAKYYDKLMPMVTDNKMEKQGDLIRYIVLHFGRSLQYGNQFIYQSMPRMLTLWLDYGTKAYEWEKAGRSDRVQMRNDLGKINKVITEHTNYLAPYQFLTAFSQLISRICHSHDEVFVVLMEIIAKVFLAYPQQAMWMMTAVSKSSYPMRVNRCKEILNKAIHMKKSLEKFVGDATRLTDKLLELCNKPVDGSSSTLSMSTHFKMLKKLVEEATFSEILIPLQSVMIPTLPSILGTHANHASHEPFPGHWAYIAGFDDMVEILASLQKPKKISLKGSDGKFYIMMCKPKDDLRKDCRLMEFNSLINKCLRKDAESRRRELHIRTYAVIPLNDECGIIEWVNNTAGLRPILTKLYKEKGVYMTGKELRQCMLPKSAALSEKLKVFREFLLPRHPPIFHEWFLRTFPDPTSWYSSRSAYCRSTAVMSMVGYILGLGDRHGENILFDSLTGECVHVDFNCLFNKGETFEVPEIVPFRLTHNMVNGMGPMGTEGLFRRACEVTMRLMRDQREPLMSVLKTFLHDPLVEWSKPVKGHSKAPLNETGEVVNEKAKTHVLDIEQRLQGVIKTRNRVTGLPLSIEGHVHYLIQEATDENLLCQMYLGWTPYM
Protocol: Compounds can be screened for their ability to inhibit ATR kinase using a radioactive-phosphate incorporation assay. Assays are carried out in a mixture of 50 mM Tris/HCl (pH 7.5), 10 mM MgCl2 and 1 mM DTT. Final substrate concentrations are 10 μM [γ-33P]ATP (3 mCi ^33P ATP/mmol ATP, Perkin Elmer) and 800 μM target peptide (ASELPASQPQPFSAKKK (SEQUENCE ID NO: 1)).
Assays are carried out at 25° C. in the presence of 5 nM full-length ATR. An assay stock buffer solution is prepared containing all of the reagents listed above, with the exception of ATP and the test compound of interest. 13.5 μL of the stock solution is placed in a 96 well plate followed by addition of 2 μL of DMSO stock containing serial dilutions of the test compound (typically starting from a final concentration of 15 μM with 3-fold serial dilutions) in duplicate (final DMSO concentration 7%). The plate is pre-incubated for 10 minutes at 25° C. and the reaction initiated by addition of 15 μL [γ-33P]ATP (final concentration 10 μM).
The reaction is stopped after 24 hours by the addition of 30 μL 0.1M phosphoric acid containing 2 mM ATP. A multiscreen phosphocellulose filter 96-well plate (Millipore, Cat no. MAPHN0B50) is pretreated with 100 μL 0.2M phosphoric acid prior to the addition of 45 μL of the stopped assay mixture. The plate is washed with 5×200 μL 0.2M phosphoric acid. After drying, 100 μL Optiphase ‘SuperMix’ liquid scintillation cocktail (Perkin Elmer) is added to the well prior to scintillation counting (1450 Microbeta Liquid Scintillation Counter, Wallac).
After removing mean background values for all of the data points, Ki(app) data are calculated from non-linear regression analysis of the initial rate data using the Prism software package (GraphPad Prism version 3.0cx for Macintosh, GraphPad Software, San Diego Calif., USA).

intracellular ATR = molecular target: T2, intracellular ATR (Homo sapiens, UniProt Q13535); experiment: Cellular ATR inhibition assay (H2AX phosphorylation in hydroxyurea treated HT29 cells); assay type: cell-based; settings: 2 mM hydroxyurea, phosphorylated H2AX-positive nuclei
T2 construct: endogenous in cells; host or cells: HT29
T2 sequence (Q13535 whole entry): as above
T2 sequence (Q8WXE1 whole entry partner): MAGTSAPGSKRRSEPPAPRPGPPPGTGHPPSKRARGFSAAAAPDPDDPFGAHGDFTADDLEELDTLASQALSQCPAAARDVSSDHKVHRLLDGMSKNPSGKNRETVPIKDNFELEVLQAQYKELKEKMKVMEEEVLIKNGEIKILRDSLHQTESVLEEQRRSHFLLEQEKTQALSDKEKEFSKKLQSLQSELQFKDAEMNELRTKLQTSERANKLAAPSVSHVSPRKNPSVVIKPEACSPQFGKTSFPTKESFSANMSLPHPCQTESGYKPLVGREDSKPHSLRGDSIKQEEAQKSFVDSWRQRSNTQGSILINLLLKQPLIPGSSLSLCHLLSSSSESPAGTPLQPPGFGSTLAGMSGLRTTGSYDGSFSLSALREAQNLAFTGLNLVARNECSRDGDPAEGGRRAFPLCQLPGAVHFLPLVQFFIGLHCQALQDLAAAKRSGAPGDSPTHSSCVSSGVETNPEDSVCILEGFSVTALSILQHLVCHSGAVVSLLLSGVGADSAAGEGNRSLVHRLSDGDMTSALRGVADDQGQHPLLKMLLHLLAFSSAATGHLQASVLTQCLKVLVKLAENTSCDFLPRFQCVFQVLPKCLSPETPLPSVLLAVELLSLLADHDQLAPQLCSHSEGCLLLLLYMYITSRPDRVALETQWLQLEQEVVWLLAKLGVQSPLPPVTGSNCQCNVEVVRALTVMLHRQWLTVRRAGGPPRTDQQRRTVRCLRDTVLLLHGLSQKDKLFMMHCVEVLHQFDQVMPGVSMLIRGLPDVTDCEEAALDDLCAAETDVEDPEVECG
Protocol: Compounds can be screened for their ability to inhibit intracellular ATR using an immunofluorescence microscopy assay to detect phosphorylation of the ATR substrate histone H2AX in hydroxyurea treated cells. HT29 cells are plated at 14,000 cells per well in 96-well black imaging plates (BD 353219) in McCoy's 5A media (Sigma M8403) supplemented with 10% foetal bovine serum (JRH Biosciences 12003), Penicillin/Streptomycin solution diluted 1:100 (Sigma P7539), and 2 mM L-glumtamine (Sigma G7513), and allowed to adhere overnight at 37° C. in 5% CO2. Compounds are then added to the cell media from a final concentration of 25 μM in 3-fold serial dilutions and the cells are incubated at 37° C. in 5% CO2. After 15 min, hydroxyurea (Sigma H8627) is added to a final concentration of 2 mM.
After 45 min of treatment with hydroxyurea, the cells are washed in PBS, fixed for 10 min in 4% formaldehyde diluted in PBS (Polysciences Inc 18814), washed in 0.2% Tween-20 in PBS (wash buffer), and permeabilised for 10 min in 0.5% Triton X-100 in PBS, all at room temperature. The cells are then washed once in wash buffer and blocked for 30 min at room temperature in 10% goat serum (Sigma G9023) diluted in wash buffer (block buffer). […]
Cells are imaged for Alexa Fluor 488 and Hoechst intensity using the BD Pathway 855 Bioimager and Attovision software (BD Biosciences, Version 1.6/855) to quantify phosphorylated H2AX Ser139 and DNA staining, respectively. The percentage of phosphorylated H2AX-positive nuclei in a montage of 9 images at 20× magnification is then calculated for each well using BD Image Data Explorer software (BD Biosciences Version 2.2.15). […] The percentage of H2AX positive nuclei is finally plotted against concentration for each compound and IC50s for intracellular ATR inhibition are determined using Prism software (GraphPad Prism version 3.0cx for Macintosh, GraphPad Software, San Diego Calif., USA).

[2] = Mouse PO/PK in tumor (FIG. 6); assay type: in vivo; settings: mouse grafted with tumors, compared with Compound P-110
Source text: FIG. 6: Mouse PO/PK in tumor

[3] = test system: HCT116 colorectal cancer cells; experiment: Cisplatin sensitization assay, 96 h cell viability (MTS); assay type: cell-based; settings: concentration of compound required to reduce the IC50 of Cisplatin alone by at least 3-fold; HCT116, 96 h
Protocol: Compounds can be screened for their ability to sensitize HCT116 colorectal cancer cells to Cisplatin using a 96 h cell viability (MTS) assay. […] Compounds and Cisplatin are then both added simultaneously to the cell media in 2-fold serial dilutions from a top final concentration of 10 μM as a full matrix of concentrations in a final cell volume of 200 μl, and the cells are then incubated at 37° C. in 5% CO2. After 96 h, 40 μl of MTS reagent (Promega G358a) is added to each well and the cells are incubated for 1 h at 37° C. in 5% CO2. Finally, absorbance is measured at 490 nm using a SpectraMax Plus 384 reader (Molecular Devices) and the concentration of compound required to reduce the IC50 of Cisplatin alone by at least 3-fold (to 1 decimal place) can be reported.

[4] = Pharmacokinetics (noncompartmental, blood or plasma); settings: in vivo, intravenous (IV) dosing
Source text: Noncompartmental pharmacokinetic parameters can be analyzed using Watson Bioanalytical LIMS (Version 7.4; Thermo Fisher Scientific) from either the blood or plasma samples. The following parameters are estimated following intravenous (IV) dosing; terminal elimination half-life (T1/2=ln(2)/λz, where λz is the first order rate constant associated with the terminal (log-linear) portion of the curve. The area under the curve (AUClast=area under the curve from the time of dosing to the last measurable concentration). The area under the curve extrapolated to infinity (AUC0-∞=AUClast+Clast/λz). The clearance (Cl; Cl=DoseIV/AUC0-∞).
The area under the first moment curve (AUMClast=area under the concentration times time versus time curve from the time of dosing to the last measurable concentration). The area under the first moment curve extrapolated to infinity (AUMC0-∞=AUMClast+Clast×t/λz+Clast/λz^2). The mean residence time (MRT=AUMC0-∞/AUC0-∞) and the steady state volume of distribution (Vdss=MRT×Cl).
Clearance and volume of distribution can also be obtained using methods known to one of skill in the art (see e.g., Handbook of Essential Pharmacokinetics, Pharmacodynamics and Drug Metabolism for Industrial Scientists, Younggil Kwon, pp 18-28 (Non-compartmental Approach)).

| Structure (SMILES) | % T/C (tumour size of treatment group compared with control group) (Colo205 model; day 13, irinotecan 20 mg/kg, compound 40 mg/kg PO qd3 of a four-day cycle, five cycles) [%] | Effect on tumors (Colo205 model; irinotecan 20 mg/kg, compound orally as a solution 40 mg/kg, PO qd3, five cycles) | IC50 [1] [µM] | Effect on tumors (primary NSCLC model; cisplatin 3 mg/kg, compound 30 mg/kg uid q2d) | % T/C (tumour size of treatment group compared with control group) (primary NSCLC model; day 20, cisplatin 3 mg/kg, compound 30 mg/kg uid q2d) [%] | Ki (full-length ATR) [µM] | IC50 (intracellular ATR) [µM] | Oral exposure in tumors [2] | Cisplatin sensitization [3] [nM] | clearance [4] [mL/min/kg] | half-life [4] [h] | Vd ([4]; read-out: Vss) [L/kg] | Sensitization (Colo205 model; same model (irinotecan), compound 45 mg/kg twice a day (bid)) | Sensitisation (primary NSCLC model; same model (cisplatin), compound 30 mpk bid (on/1 day off)) |
| --- | --- | --- | --- | --- | --- | --- | --- | --- | --- | --- | --- | --- | --- | --- |
| CC(C)S(=O)(=O)c1ccc(-c2cnc(N)c(-c3cc(-c4ccc(CNC5CCOCC5)cc4)no3)n2)cc1 [Compound I-1] | 10.9 | marked regression of tumors | 0.083 | marked regression of tumors | 1.7 | 0.00014 | 0.013 | created oral exposure in tumors compared with Compound P-110 | 39 | 7.1 | 4.7 | 2.8 | – | – |
| [2H]C([2H])([2H])C([2H])(C([2H])([2H])[2H])S(=O)(=O)c1ccc(-c2cnc(N)c(-c3cc(-c4ccc(CNC5CCOCC5)cc4)no3)n2)cc1 [Compound II-2, 5-[4-[1,2,2,2-tetradeuterio-1-(trideuteriomethyl)ethyl]sulfonylphenyl]-3-[3-[4-[(tetrahydropyran-4-ylamino)methyl]phenyl]isoxazol-5-yl]pyrazin-2-amine] | – | – | 0.059 | – | – | 0.000105 | – | – | 39 | – | – | – | – | – |
| CC(C)S(=O)(=O)c1ccc(-c2cnc(N)c(-c3cc(-c4ccc(CN[C@H]5CCOC5)cc4)no3)n2)cc1 [Compound P-110, reference compound] | – | – | – | – | – | – | – | – | – | – | – | – | no sensitization | no sensitisation |
| CC(C)S(=O)(=O)c1ccc(-c2cnc(N)c(-c3cc(-c4ccc(CN[C@@H]5CCOC5)cc4)no3)n2)cc1 [P-110 (R), reference compound] | – | – | 0.205 | – | – | 0.00029 | 0.054 | – | 78 | 12.7 | 2.7 | – | – | – |
| CC(C)S(=O)(=O)c1ccc(-c2cnc(N)c(-c3cc(-c4ccc(CN[C@H]5CCOC5)cc4)no3)n2)cc1 [P-110 (S), reference compound] | – | – | 0.28 | – | – | 0.00026 | 0.046 | – | 156 | – | – | – | – | – |
